Patent publication US5874235A, “Screening assays for cancer chemopreventative agents” (The Johns Hopkins University, priority 1997, dated 1999)
Numbered stars: 1 amine (or outer) side, 2 acyl side, 3 side chain; on linkers, the order of the positions; unused ones are H or OH. Bridge positions count the residues as written; N and C are the ends. Square brackets hold non-standard residues; d marks the D form. Peptide text beside a SMILES is read from it. I, II: the chains in the order shown. Actinocin(9to1) = Cc1c2oc3c(C)ccc(C(=O)[*:1])c3nc-2c(C(=O)[*:2])c(N)c1=O; NMeV = CN[C@H](C(=O)O)C(C)C; Sar = CNCC(=O)O

Assays:
Type in all cases: cell-based, human
SW480 cells [1] = conditions: for inhibition of SUS-induced apoptosis: co-treatment with SUS 200 μM (CHX 10 μM; PGE2 10 μM); for effect on apoptosis: 200 μM fatty acid, 48 hours
HCT116 cells [2] = conditions: for inhibition of SUS-induced apoptosis: co-treatment with SUS 125 μM (CHX 10 μM; PGE2 10 μM)
Experimental: FIGS. 1A, 1B and 1C NSAID induce apoptosis in human colorectal cancer cells. In FIG. […] Cells were collected at the indicated times, fixed and stained with Hoechst 33258 (23). The cells were counted and those with fragmented nuclei were scored as apoptotic. In FIG. 1B, HCT116 and SW480 cells were treated with SUS or INDO for 60 hours, harvested and stained as described above. Cells treated with SUS or INDO show the hallmarks of apoptosis.
(§1) This death appeared to be apoptotic, as it was accompanied by nuclear condensation and fragmentation (FIG. 1B) and exposure of phosphatidylserine groups on the cell surface, two hallmarks of apoptosis (11, 12).

SW480 cells [3] = test: Ceramide levels, E. coli diacylglycerol (DAG) kinase assay; conditions: for effect on ceramide levels: 48 hours
Experimental: (§2) Cells were harvested and ceramide was quantified. The first lane of each panel corresponds to a ceramide standard (ceramide type III, Sigma). […] HCT116 and SW480 cells were treated with SUS or INDO as indicated. Ceramide levels were determined as described above. […] Control cells were treated with DMSO vehicle only. Cells were harvested at the indicated times following treatment and ceramide levels were determined as described above. The data are plotted as the mean of at least two experiments with the error bars corresponding to the standard deviation.
(§3) Ceramide levels were measured using the Escherichia coli diacylglycerol (DAG) kinase assay as previously described (30) with the following modifications. After the initial lipid extraction, phases were broken by adding 2 ml chloroform and 2 ml 1M NaCl and lipids were washed with 1M NaCl prior to drying under nitrogen (32, 33). After solubilization, samples were sonicated for 15 seconds. The DAG reaction was performed for 30 minutes at 25° C. in a 100 μl reaction volume with 3.5 μg DAG kinase (Calbiochem) and […] γ^32 P-ATP (Dupont NEN, 6000 Ci/mmol). After extraction of the labeled lipids, the lower chloroform phase was washed with 1% HCl prior to drying under nitrogen. The solvent mixture for thin layer chromatography was chloroform:acetone:methanol:acetic acid:water (10:4:3:2:1). Samples were quantitated using a Phosphorimager (Molecular Dynamics).

SW480 cells [4] = conditions: indomethacin treatment
Experimental: FIGS. 1A, 1B and 1C NSAID induce apoptosis in human colorectal cancer cells. In FIG. 1A, HCT116 and SW480 cells were treated with indomethacin (INDO) (300 μM) or SUS (125 μM for HCT116 and 200 μM for SW480 cells). Cells were collected at the indicated times, fixed and stained with Hoechst 33258 (23). The cells were counted and those with fragmented nuclei were scored as apoptotic. In FIG. 1B, HCT116 and SW480 cells were treated with SUS or INDO for 60 hours, harvested and stained as described above. Cells treated with SUS or INDO show the hallmarks of apoptosis.
as §1

HCT116 cells [5] = test: Ceramide levels, E. coli diacylglycerol (DAG) kinase assay; conditions: indomethacin treatment
Experimental: as §2, §3

HCT116 cells [6] = test: Arachidonic acid levels, release of 3H-AA into the media
Experimental: (§4) FIGS. 4A, 4B, 4C, 4D, 4E and 4F. The role of arachidonic acid in NSAID-mediated apoptosis. […] HCT116 and SW480 cells were treated with the indicated concentrations of SUS or INDO. Arachidonic acid (AA) levels were determined by measuring release of ^3 H-AA into the media as previously described (18). Data are indicated as the mean of three replicates with the error bars corresponding to the standard deviation. In addition, the nature of the released radiolabeled material was evaluated by thin layer chromatography as previously described (28). […] HCT116 and SW480 cells were incubated with ^3 H-choline chloride (0.5 mCi ml^-1, 80 Ci mmol^-1, New England Nuclear) for 48 hours. After labeling, cells were washed with HBSS (Gibco) and treated with SUS or INDO for the indicated times. Sphingomyelin measurements were performed using the bacterial sphingomyelinase method as previously described (18). Sphingomyelin levels at each time point are plotted as a percentage of that in untreated control cells. For each point, the mean of at least two independent experiments is presented with the error bars corresponding to the standard deviations. […] SW480 cells were treated with 200 μM arachidonic acid (AA), SUS (SUS) or behenic acid as a control fatty acid (FA) as indicated. […] SW480 cells were treated with suboptimal doses (100 μM) of arachidonic acid (AA), SUS (SUS), or both (AA+SUS) as indicated. After 48 hours of treatment, apoptosis and ceramide increases were assessed as described for FIGS. 1 and 3, respectively. Ceramide increases (left axis) were expressed as fold increases relative to untreated cells. Apoptosis (right axis) was expressed as percent apoptotic cells minus percent apoptotic cells in untreated cells (5.6%+/-2.4). Data are indicated as the mean of duplicates with the error bars corresponding to the standard deviation.
(§5) Arachidonic acid is known to stimulate neutral sphingomyelinase (18), which catalyzes the conversion of sphingomyelin to ceramide. We therefore considered the possibility that inhibition of COX activity might lead to increases in arachidonic acid, the substrate for COX. To test this hypothesis, we first determined whether SUS stimulated arachidonic acid accumulation. In both SW480 and HCT 116 cells, apoptosis-inducing doses of SUS increased arachidonic acid by 2 to 3 fold at 24 hours and by approximately 5 fold at 48 hours (FIGS. 4A and 4B). The arachidonic acid increase following SUS treatment was as great as that following treatment with mellitin, a known activator of phospholipase A2. Arachidonic acid levels in HCT116 cells increased 3.5 fold one hour after treatment with 1 μM mellitin. Likewise, arachidonic acid levels increased 2.9 fold in SW480 cells one hour after mellitin treatment. Arachidonic acid (AA) levels were determined by measuring release of ^3 H-AA into the media as previously described (18). The nature of released radiolabeled material was evaluated by thin layer chromatography analysis as previously described (28).

SW480 cells [7] = test: cells; conditions: for increase in arachidonic acid: sw480 cells
Experimental: as §4, §5

SW480 cells [8] = test: Sphingomyelin levels, bacterial sphingomyelinase method; conditions: indomethacin treatment
Experimental: as §4
(§6) To test whether the increased ceramide was associated with evidence of augmented sphingomyelinase activity, we measured total sphingomyelin levels after SUS treatment. […] We also measured neutral sphingomyelinase activity in lysates from the treated cells and no differences were found. Neutral sphingomyelinase activity was assayed as described (18). After cell lysis, protein concentrations were determined using the Bradford method (Bio-Rad) and […] cellular protein was used in each assay. Neutral sphingomyelinase activity was determined by measuring the rate of hydrolysis of ^14 C-labelled sphingomyelin (Amersham). SW480 and HCT116 cell lines were treated with SUS (50, 200, and 600 μM) for 6 to 24 hours.

HCT116 cells [9] = test: as above; conditions: indomethacin treatment
Experimental: as §4, §6

For Cc1c2oc3c(C)ccc(C(=O)N[C@@H]4C(=O)N[C@H](C(C)C)C(=O)N5CCC[C@H]5C(=O)N(C)CC(=O)N(C)[C@@H](C(C)C)C(=O)O[C@@H]4C)c3nc-2c(C(=O)N[C@@H]2C(=O)N[C@H](C(C)C)C(=O)N3CCC[C@H]3C(=O)N(C)CC(=O)N(C)[C@@H](C(C)C)C(=O)O[C@@H]2C)c(N)c1=O [actinomycin D] (I: T[dV]P[Sar][NMeV] / II: T[dV]P[Sar][NMeV]; ester I:1-I:C, II:1-II:C; linker I:N-II:N via Actinocin(9to1)), the “inhibition of SUS-induced apoptosis” value (SW480 cells [1]) was “completely inhibit apoptosis” and the “inhibition of SUS-induced apoptosis” value (HCT116 cells [2]) was “completely inhibit apoptosis”.

CCCCC/C=C\C/C=C\C/C=C\C/C=C\CCCC(=O)O [arachidonic acid] was tested, and the “effect on ceramide levels” value (SW480 cells [3]; 200 μM fatty acid) was “a potent inducer of ceramide and apoptosis”, the “effect on ceramide levels” value (SW480 cells [3]; suboptimal doses, 100 μM each, separately or together) was “little effect on ceramide levels” and the effect on apoptosis (SW480 cells [1]) was “a potent inducer of ceramide and apoptosis”.

For CCCCCCCCCCCCCCCCCCCCCC(=O)O [behenic acid], the “effect on ceramide levels” value (SW480 cells [3]; 200 μM fatty acid) was “virtually no effect on ceramide levels and apoptosis” and the effect on apoptosis (SW480 cells [1]) was “virtually no effect on ceramide levels and apoptosis”.

For C[C@@H]1C[C@@H]([C@H](O)CC2CC(=O)NC(=O)C2)C(=O)[C@@H](C)C1 [cycloheximide], the “inhibition of SUS-induced apoptosis” value (SW480 cells [1]) was “completely inhibit apoptosis”, the “inhibition of SW480 cell death” value (SW480 cells [1]; higher concentrations of SUS) was “could not inhibit” and the “inhibition of SUS-induced apoptosis” value (HCT116 cells [2]) was “completely inhibit apoptosis”.

COc1ccc2c(c1)c(CC(=O)O)c(C)n2C(=O)c1ccc(Cl)cc1 [indomethacin] was tested, and the “induction of apoptosis compared with SUS” value (SW480 cells [4]) was “to similar degrees as SUS”, the “cells induced to undergo apoptosis” value (SW480 cells [4]; cycloheximide sensitive) was 94% and the “increase in ceramide levels” value (SW480 cells [3]; indomethacin treatment) was 6 fold. The “increase of ceramide concentration compared with SUS” value (SW480 cells [3]; indomethacin treatment) was “to similar degrees as SUS”, the “increase of ceramide concentration compared with SUS” value (HCT116 cells [5]) was “to similar degrees as SUS” and the “increase of arachidonic acid concentration compared with SUS” value (HCT116 cells [6]; indomethacin treatment) was “to similar degrees as SUS”. The “increase of arachidonic acid concentration compared with SUS” value (SW480 cells [7]; indomethacin treatment) was “to similar degrees as SUS”, the “increase in arachidonic acid” value (SW480 cells [7]) was 3-4 fold and the “induction of apoptosis compared with SUS” value (HCT116 cells [2]; indomethacin treatment) was “to similar degrees as SUS”. The “activation of sphingomyelin hydrolysis compared with SUS” value (SW480 cells [8]) was “to similar degrees as SUS” and the “activation of sphingomyelin hydrolysis compared with SUS” value (HCT116 cells [9]) was “to similar degrees as SUS”.

In the case of CCCCC[C@H](O)/C=C/[C@H]1[C@H](O)CC(=O)[C@@H]1C/C=C\CCCC(=O)O [prostaglandin E2], the “inhibition of SUS-induced apoptosis” value (SW480 cells [1]) is reported as “No inhibition of apoptosis was observed” and the “inhibition of SUS-induced apoptosis” value (HCT116 cells [2]) is reported as “No inhibition of apoptosis was observed”.

With ceramide the “increase in arachidonic acid” value (HCT116 cells [6]; hct116 cells, 16 h, 100 µM) was 1.5 fold, the “increase in arachidonic acid” value (SW480 cells [7]; 16 h, 100 µM) was 1.9 fold and the induction of apoptosis (SW480 cells [1]; human, sw480 cells, 16 h, 100 µM) was greater than 90%. For the same compound, the induction of apoptosis (HCT116 cells [2]; human, hct116 cells, 16 h, 100 µM) was greater than 90%.

For mellitin, the “increase in arachidonic acid levels” value (HCT116 cells [6]; one hour after 1 μM mellitin) was 3.5 fold and the “increase in arachidonic acid levels” value (SW480 cells [7]; one hour after mellitin treatment, 60 min) was 2.9 fold.
